Marks after values point to notes of the source that are not given here.
Experiments:
T. congolense KONT 2/133 = experiment: Cattle efficacy for compound 1, SC (Clinvet); type: in vivo, Trypanosoma congolense; conditions: for Animals negative for parasites / Animals positive for parasites: 5 mg/kg SC twice 12 h apart
From the text: However, following the cessation of treatment, parasitaemia quickly re-emerged to such an extent that after 4 days, all calves were positive. It should be noted that in this study, calves were infected with a highly virulent T. congolense isolate known to be resistant to established anti-trypanosomal agents diminazene and isometamidium. Testing compounds in this model represents a rigorous test of efficacy; thus, the observed reduction in parasite numbers in calves dosed with compound 1 was very encouraging. […]
3.3 Cattle efficacy for compound 1 (Clinvet)
(§1) In each of the cattle efficacy studies (3.3, 3.4 and 3.5), efficacy was assessed primarily on absence of recrudescence of parasitaemia for 100 days after treatment administration together with improvements in Packed Cell Volume, body weight and clinical signs of infected compared with uninfected animals. Assessment of parasitaemia was based on phase contrast buffy coat examinations and confirmation by PCR at 100 d.
Friesian-Holstein calves, weaned for at least 2 months and with a minimum age of 4 months, housed in a fly-proof building, were infected with Trypanosoma conglense (savannah) KONT 2/133, at a dose of 110,000 parasites (study day 0) via IV infusion. The parasites were obtained from a donor calf. This isolate is resistant to diminazene (20 mg/kg) and isometamidium (1 mg/kg) in cattle, and diminazene (7 mg/kg) and isometamidium (>1 mg/kg) in mice. Calves were parasitaemic by study day 6. Calves (n = 5) were treated with compound 1 (5 mg/kg, SC, twice 12 h apart) on study […]
day at 25 mg/ml in NMP/ 2-pyrrolidinone/ PEG400 water 10/40/30/20. Control groups were comprised of un-infected calves, infected but un-treated calves (n = 6) and calves treated with diminazene (n = 3) or isometamidium (n = 3). The calves were randomised to treatments. Calves were monitored daily for parasitaemia and packed cell volume (PCV) via blood sampling and through […]
One day after treatment, 80% of the animals in the treatment group were negative for parasites.
After 3 d, 100% of the animals in the treatment groups were negative for parasites. After 5 d, 40% of the animals were positive for parasites. […]

T. vivax (STIB719) = experiment: Cattle efficacy for compound 2, intravenous infusion (Clinvet), T. vivax; type: in vivo, Trypanosoma vivax; conditions: Friesian-Holstein cattle infected with T. vivax; n = 4; at 100 days
Procedure: Unfortunately, an injection site tolerability issue arose during the pharmacokinetic study in cattle that was not evident in rats. […] To circumvent these issues, compound 2 was assessed in an in vivo proof of concept efficacy study in Friesian-Holstein cattle using an IV infusion regimen. The study was conducted in four animals infected with T. congolense (KONT2/133) and four animals infected with T. vivax (STIB719). Three additional animals infected with each strain formed the vehicle control groups and were dosed IV once daily with saline. Pharmacokinetic modeling was used to define a dosing regimen that mimics the blood concentration–time profile that delivered cure in mice (10 mg/kg SC once daily for 2 days, with a Ctrough of >20 ng/mL (>38 nM)). A continuous infusion over 36 h and two loading doses 24 h apart were required. […]
Response to treatment was determined by monitoring parasitaemia twice a week until day 21. […]
as §1, with “Assessment of parasitaemia was based on phase contrast buffy coat examinations and confirmation by PCR at 100 d.” left out

T. vivax = experiment: Cattle efficacy for compound 2, intramuscular (CIRDES), T. vivax; type: in vivo, Trypanosoma vivax
Procedure: Compound 2 was progressed into IM efficacy studies dosing at 10 mg/kg either once or twice, 15 h apart, in cattle infected with T. congolense or T. vivax. […]
3.5 Cattle efficacy for compound 2, intramuscular (CIRDES)
Felani-zebu cattle were housed in a fly-proof facility, acclimatised for 15 d prior to the study, cattle were treated with an anthelmintic, an ectoparasiticide and an antibiotic. Donor animals were infected with stabilates (frozen stocks) of either T. congolense KOT256 (resistant to 7 mg/kg diminazene in cattle) or T. vivax Gando Bongaly (resistant to diminazene 7 mg/kg and to isometamidium 1 mg/kg […]
in cattle). Blood from the donor animals, diluted with phosphate buffered glucose was used to infect recipient animals IV via the jugular vein. Infection was with approximately 100,000 fresh viable parasites. The compounds were given IM. Each injection was up to 10 mL and given in neck in the following order: left anterior third, right anterior third, left posterior third and right posterior third.
Animals over 240 kg required a fifth injection site for the IVP, and this was given in the left or right hind leg. Cattle were randomised to treatments. Parasitaemia was monitored 3 times per calendar week, though collection of blood and assessment of clinical symptoms. Blood samples were also […]
treatment). […]

[1] = 5 mg/kg SC given twice at 12 h intervals

Row | Structure (SMILES) | Parasitaemia in calves (T. congolense KONT 2/133; [1]) | Time after cessation of treatment until all calves were positive (T. congolense KONT 2/133; [1]) | Animals negative for parasites (T. congolense KONT 2/133; after 3 d) | Animals positive for parasites (T. congolense KONT 2/133; after 5 d) | Animals positive for parasites (T. congolense KONT 2/133; after 6 d) | Animals positive for parasites (T. congolense KONT 2/133; after 8 days) | Animals negative for parasites (T. congolense KONT 2/133; one day after treatment) | Efficacy in cattle, IV bolus and infusion (T. vivax (STIB719)) | efficacy (T. vivax; T5, 10 mg/kg IM once) | Efficacy, individual animals (T. vivax; T5 dosed once IM, animals 1907, 1918, 1932, 1933, 1940) | efficacy (T. vivax; T6, 10 mg/kg IM twice, 15 h apart) | Efficacy, individual animals (T. vivax; T6 dosed twice IM, animals 1902, 1926, 1929) | efficacy (T. vivax; T9, saline twice, followed by compound 2 rescue dose twice IM 4 days later) | Efficacy, individual animals (T. vivax; T9 after 2 (rescue IM), animals 1931, 1934) | Cattle cured (T. vivax; T. vivax-infected cattle, 10 mg/kg IM once or twice, 10 mg/kg)
1 | CC(C)CS(=O)(=O)N[C@H]1CC[C@H](Nc2nc(N)c(C(=O)c3c(F)cccc3F)s2)CC1 [Compound 1, N-((trans)-4-((4-Amino-5-(2,6-difluorobenzoyl)thiazol-2-yl)amino)cyclohexyl)-2-methylpropane-1-sulfonamide] | suppressed below the level of detection | 4 days | 100% | 40% | 80% | 100% | 80% | – | – | – | – | – | – | – | –
2 | CC(C)CS(=O)(=O)N[C@H]1CC[C@H](Nc2nc(N)c(C(=O)c3c(F)cc(CN(C)C)cc3F)s2)CC1 [Compound 2, N-(trans)-[4-[[4-Amino-5-[4-(dimethylaminomethyl)-2,6-difluoro-benzoyl]thiazol-2-yl]amino]cyclohexyl]-2-methyl-propane-1-sulfonamide] | – | – | – | – | – | – | – | cured | 0/5 ^a | No | 0/3 ^a | No | 0/2 ^a | No and no | none and not cured

Reference: article PMC9014415, “Repositioning of a Diaminothiazole Series Confirmed to Target the Cyclin-Dependent Kinase CRK12 for Use in the Treatment of African Animal Trypanosomiasis” (Journal of Medicinal Chemistry, 2022)
